# In patent publication US20220202799A1, “PHARMACEUTICAL FORMULATIONS CONTAINING P2Y14 ANTAGONISTS” (priority 2019, published 2022):
# Where “and” joins values, the source holds several entries; their conditions need not be identical. Equal values may be shown once. Read-outs that look alike come from different tables or passages of the source. Marks after values point to notes of the source that are not given here.
# What was measured:
# [1] = Solubility of PPTN in various aqueous and organic solvents; assay type: physicochemical; conditions: thermodynamic from solid, PPTN HCl salt, room temperature, read-out: Solubility Estimate
# Description: The solubility of PPTN in various aqueous and organic solvents was tested. Test media were prepared, and 5 mg/mL solid PPTN (HCl salt) was added at room temperature. If all PPTN dissolved under these conditions, additional PPTN was added to a total of 10 mg/mL. After 24 hours, undissolved material was removed, and the concentration of PPTN in the supernatant was analyzed by HPLC.
# [2] = Urine concentrations, 72-hour continuous intravenous infusion; assay type: in vivo, Sprague-Dawley rats; conditions: individual animals; for Total amount in urine: all intervals
# Description: The safety and pharmacokinetics of PPTN (KB-1801) in rats receiving continuous intravenous injections of SBECD-containing solutions were analyzed. Three cohorts of six male and six female rats each were given continuous intravenous infusion of PPTN (KB-1801) at 10 mg/kg/day, 30 mg/kg/day or 100 mg/kg/day in a dosing solution containing PPTN at 0.25 mg/mL, 0.75 mg/mL or 2.5 mg/mL and SBECD at about 3.8%. Dosing volume was 40 mIkg/day.
# [3] = Potency and purity of diluted dosing solutions after manufacture and shipping; assay type: physicochemical; conditions: for [KB-1801] determined by HPLC assay: shipped at ambient temperature
# Description: The stability of high-concentration PPTN solutions containing SBECD were analyzed under conditions used for product manufacturing and distribution. A stock solution containing 8.6 mg/mL PPTN, 12% SBECD in saline was prepared as described above and shipped under refrigerated conditions. Seven days after manufacture, the stock solution was diluted to make dosing solutions for administration as a continuous intravenous infusion as indicated in Table 14 and Table 15.
# Samples of diluted dosing solutions were shipped at ambient temperature and analyzed for PPTN (KB-1801) potency and purity.
# [4] = Solubility of PPTN in SBECD-containing saline solutions; assay type: physicochemical; conditions: 9 mg/mL PPTN (HCl salt) in 12% SBECD/saline; room temperature for 28 days
# Description: Sulfobutylether-β-cyclodextrin (SBECD) was tested for the ability to increase the solubility of PPTN in aqueous media.
# A stock solution containing 12% SBECD was prepared as follows: 9 mL of saline was added to 1.21 g of SBECD in a 10 mL flask, and the mixture was sonicated for 5 minutes. Saline was then added to achieve a final volume of 10 mL. The pH of the final solution was about 7.
# The solubility of PPTN in solutions containing various concentrations of SBECD was analyzed. Excess PPTN was added to saline solutions containing various concentrations of SBECD, insoluble material was removed by filtration, and the PPTN concentration in the filtered solution was analyzed.
# A solution containing 9 mg/mL PPTN was prepared as follows. 4.7 mL of 12% SBECD solution, prepared as described above, was added to a 5 mL flask containing 45 mg PPTN (HCl salt), and the mixture was sonicated with heat for 50 minutes. After sonication, 12% SBECD solution to achieve a final volume of 5 mL. The warm solution appeared clear. The solution was allowed to cool to room temperature and was incubated at room temperature for 28 days.
# [5] = Plasma pharmacokinetics after single bolus intravenous injection; assay type: in vivo; conditions: male rats; single bolus intravenous injection 0.85, 2.9 or 8.5 mg/kg; SBECD solution
# Description: The pharmacokinetics of PPTN (KB-1801) in male rats receiving single bolus intravenous injections of SBECD-containing solutions were analyzed. Three cohorts of four rats each were given a single dose of PPTN (KB-1801) at 0.85 mg/kg, 2.9 mg/kg, or 8.5 mg/kg in 1 mL dosing volume.
# [6] = Stability of PPTN in SBECD-containing solution under various storage conditions (UHPLC-UV); assay type: physicochemical; conditions: 9 mg/mL PPTN, 12% SBECD; for [PPTN]: in mg/mL
# Description: The stability of PPTN in SBECD-containing solutions was analyzed under various storage conditions. 20-mL glass vials containing 10 mL of a solution containing 9 mg/mL PPTN and 12% SBECD, as described above, were incubated under various conditions as described in Table 10.
# Samples were analyzed by UHPLC-UV as described in Table 11.
# [7] = TPGS enhancement of solubility of PPTN at neutral pH; assay type: physicochemical
# Description: α-Tocopherol polyethylene glycol succinate (TPGS) was tested for enhancement of solubility of PPTN at neutral pH. A solution containing 5 mg/mL PPTN and 4% TPGS was made by mixing components as indicated in Table 5 with stirring and heating.
# To create a solution suitable for in vitro studies, the solution containing 5 mg/mL PPTN and 4% TPGS created above was diluted into phosphate-buffered saline by mixing components as indicated in Table 6.
# [8] = 72-hour IV infusion 10 mg/kg/day, male rats, interval 0-4 h
# [9] = 72-hour IV infusion 10 mg/kg/day, male rats, interval 4-9 h
# [10] = 72-hour IV infusion 10 mg/kg/day, male rats, interval 20-24 h
# [11] = 72-hour IV infusion 10 mg/kg/day, male rats, interval 44-48 h
# [12] = 72-hour IV infusion 10 mg/kg/day, male rats, interval 68-72 h
# [13] = 72-hour IV infusion 10 mg/kg/day, male rats, interval 92-96 h
# [14] = dosing solution, targeted [KB-1801] 0.25 mg/mL
# [15] = dosing solution, targeted [KB-1801] 0.75 mg/mL
# [16] = dosing solution, targeted [KB-1801] 2.5 mg/mL
smiles,measurement,setting,value
"O=C(O)c1cc(-c2ccc(C3CCNCC3)cc2)c2ccc(-c3ccc(C(F)(F)F)cc3)cc2c1 [KB-1801, 4-[4-(piperidin-4-yl)phenyl]-7-[4-(trifluoromethyl)phenyl]-2-naphthoic acid]",solubility at 24 h,"[1]; organic solvent or mixture, DMAc, pH 1-2",> 100 mg/mL
same,solubility at 24 h,"[1]; organic solvent or mixture, NMP, pH 1-2",> 100 mg/mL
same,solubility at 24 h,"[1]; organic solvent or mixture, PEG 400, pH ~2",~25 mg/mL
same,solubility at 24 h,"[1]; organic solvent or mixture, ethanol, pH ~2",25 to 30 mg/mL
same,solubility at 24 h,"[1]; organic solvent or mixture, propylene glycol, pH ~2",40 to 50 mg/mL
same,solubility at 24 h,"[1]; water with 1% DMAc, water w/ 1% DMAc, pH 2-3, 24 hours",0.1 to 0.5 mg/mL
same,Total amount in urine,"[2]; 72-hour IV infusion 10 mg/kg/day, female rats",27.3 µg and 16.4 µg and 10.5 µg and 18.5 µg and 20.9 µg and 29.4 µg
same,Total amount in urine,"[2]; 72-hour IV infusion 10 mg/kg/day, male rats",54.2 µg and 46.1 µg and 62.5 µg and 83.7 µg and 74.4 µg and 60.9 µg
same,Amount in urine,[2]; [8],6.09 µg and 4.08 µg
same,Urine Conc.,[2]; [8],6.09 µg/mL and 8.16 µg/mL and 3.50 µg/mL and 7.91 µg/mL
same,Amount in urine,[2]; [9],11.5 µg and 5.46 µg and 8.50 µg and 6.95 µg
same,Urine Conc.,[2]; [9],7.64 µg/mL and 5.46 µg/mL and 17.0 µg/mL and 6.95 µg/mL and 15.8 µg/mL
same,Amount in urine,[2]; [10],20.7 µg and 10.0 µg and 7.20 µg and 30.9 µg
same,Urine Conc.,[2]; [10],20.7 µg/mL and 20.1 µg/mL and 24.0 µg/mL and 10.3 µg/mL and 19.4 µg/mL
same,Amount in urine,[2]; [11],2.48 µg and 14.1 µg and 22.9 µg
same,Urine Conc.,[2]; [11],24.8 µg/mL and 14.1 µg/mL and 45.9 µg/mL and 13.7 µg/mL
same,Amount in urine,[2]; [12],19.3 µg and 23.2 µg and 28.5 µg and 22.7 µg
same,Urine Conc.,[2]; [12],19.3 µg/mL and 23.2 µg/mL and 28.5 µg/mL and 22.7 µg/mL and 20.9 µg/mL
same,Amount in urine,[2]; [13],0.07 µg and 0.15 µg and 1.23 µg and 0.08 µg and 0.18 µg
same,Urine Conc.,[2]; [13],0.13 µg/mL and 0.10 µg/mL and 0.62 µg/mL and 0.20 µg/mL and 0.09 µg/mL and 0.07 µg/mL
same,Total amount in urine,"[2]; 72-hour IV infusion 30 mg/kg/day, female rats",75.7 μg and 78.9 μg (2×) and 66.9 μg and 80.5 μg and 131.7 μg
same,Total amount in urine,"[2]; 72-hour IV infusion 30 mg/kg/day, male rats",188.0 µg and 165.1 µg and 250.3 µg and 108.4 µg and 87.4 µg and 332.4 µg
same,Total amount in urine,"[2]; 72-hour IV infusion 100 mg/kg/day, female rats",251.8 µg and 191.6 µg and 78.7 µg and 198.3 µg and 151.4 µg and 353.9 µg
same,Total amount in urine,"[2]; 72-hour IV infusion 100 mg/kg/day, male rats",337.1 µg and 155.1 µg and 785.2 µg and 453.6 µg and 537.2 µg and 438.9 µg
same,Concentration higher than target concentrations,[3]; all dosing solution samples,1.6-8.0%
same,Degradation products,[3]; all dosing solution samples,No evidence of degradation products was observed in any sample
same,Impurity profile by HPLC area %,[3]; [14],No imp > 0.10 a %
same,[KB-1801] determined by HPLC assay,[3]; [14],0.27 mg/mL and 0.26 mg/mL
same,Impurity profile by HPLC area %,[3]; [15],No imp > 0.10 a %
same,[KB-1801] deviation from targeted concentration,[3]; [15],+1.3%
same,[KB-1801] determined by HPLC assay,[3]; [15],0.76 mg/mL
same,Impurity profile by HPLC area %,[3]; [16],No imp > 0.10 a %
same,[KB-1801] determined by HPLC assay,[3]; [16],2.56 mg/mL and 2.57 mg/mL
same,Solution appearance,[4],remained clear throughout the entire incubation
same,"PK parameters, relation to dose",[5],linearly dose-related
same,"Pharmacokinetics of plasma PPTN, model",[5],well-described by a 2-compartment model
same,[PPTN],"[6]; 2-5° C., 1d",8.74
same,[PPTN],"[6]; 2-5° C., 7d",8.69
same,[PPTN],"[6]; 2-5° C., 14d",8.98
same,[PPTN],"[6]; 2-5° C., 28d",8.65
same,[PPTN],"[6]; 25° C., 0d",8.72
same,[PPTN],"[6]; 25° C., 1d",8.75
same,[PPTN],"[6]; 25° C., 7d",8.82
same,[PPTN],"[6]; 25° C., 14d",8.69
same,[PPTN],"[6]; 25° C., 28d",8.71
same,[PPTN],"[6]; 40° C., 1d",8.71
same,[PPTN],"[6]; 40° C., 7d",8.71
same,[PPTN],"[6]; 40° C., 14d",9.25**
same,[PPTN],"[6]; 40° C., 28d",8.73
same,Degradants in UHPLC-UV trace,"[6]; 40° C., 28 days",No degradants were evident
same,[PPTN],"[6]; 50° C., 1d",8.78
same,[PPTN],"[6]; −20° C., 1d (freeze/thaw)",9.0*
same,Solution pH (final),"[7]; 100 μM KB-1801, 0.04 wt % TPGS in buffered saline",Final pH: 7.4
same,Solution appearance,"[7]; 100 μM KB-1801, 0.04 wt % TPGS in buffered saline (5 mg/ml solution diluted 100x)",Resulting clear solution
same,Solution appearance,"[7]; 5 mg/mL KB-1801, 4 wt % TPGS, after phosphate buffer 20 mM pH 8.3",Resulting clear
same,Solution pH (final),"[7]; 5 mg/mL KB-1801, 4 wt % TPGS, phosphate buffer, buffered saline",Final pH: 7.0-7.4
same,Solution appearance,"[7]; 5 mg/mL KB-1801 with TPGS solution, 4 wt %, stirring and heating",Resulting clear
